Assay results taken from paper PMC2966823 (Journal of the American Chemical Society, 2010).

Legend:
FGFR1/FLT2 = FGFR1/FLT2 (Homo sapiens, UniProt P11362); assay: split-luciferase three-hybrid displacement of Jun-staurosporine, […] inhibitor; type: cell-based; details: read-out: % inhibition at 10 μM
[1] = target: cAMP dependent protein kinase A, catalytic subunit α (PKA) (Homo sapiens, UniProt P17612); assay: as above; type: cell-based; details: read-out: % inhibition at 10 μM

FGFR1/FLT2, sequence (P11362 478-767 limits assumed): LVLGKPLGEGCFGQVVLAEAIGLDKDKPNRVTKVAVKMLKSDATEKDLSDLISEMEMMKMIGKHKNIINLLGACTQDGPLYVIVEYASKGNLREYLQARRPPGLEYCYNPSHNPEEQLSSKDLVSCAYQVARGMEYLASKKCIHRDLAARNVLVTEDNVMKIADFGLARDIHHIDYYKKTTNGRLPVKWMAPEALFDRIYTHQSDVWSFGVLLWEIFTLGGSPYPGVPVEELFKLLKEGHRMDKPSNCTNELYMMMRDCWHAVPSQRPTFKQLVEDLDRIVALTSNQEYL

Compound	inhibition at 10 µM (FGFR1/FLT2)	inhibition at 10 µM [1]
CC(C)[C@H](CO)Nc1nc(Nc2cc(N)cc(Cl)c2)c2ncn(C(C)C)c2n1 [compound 6, aminopurvalanol A]	68%	
O=S(=O)(NCCNC/C=C/c1ccc(Br)cc1)c1cccc2cnccc12 [compound 5, H89]		67%
CC(C)[C@H](CO)Nc1nc(Nc2ccc(C(=O)O)c(Cl)c2)c2ncn(C(C)C)c2n1 [compound 8, purvalanol B]	58%	
